What follows are molecules tested against DGKα (Homo sapiens (Human), UniProt P23743) (assay: Human DGKα kinase activity inhibition assay (ADP-Glo)). Conditions: recombinant full-length human DGKα, 55 μM ATP, 7 μM 1,2-dioleoyl-sn-glycerol, read-out: IC50 values of examples in in vitro human DGKa kinase activity inhibition assays.
Chain of DGKα (P23743 other isoform, or with tags, fused parts or gaps): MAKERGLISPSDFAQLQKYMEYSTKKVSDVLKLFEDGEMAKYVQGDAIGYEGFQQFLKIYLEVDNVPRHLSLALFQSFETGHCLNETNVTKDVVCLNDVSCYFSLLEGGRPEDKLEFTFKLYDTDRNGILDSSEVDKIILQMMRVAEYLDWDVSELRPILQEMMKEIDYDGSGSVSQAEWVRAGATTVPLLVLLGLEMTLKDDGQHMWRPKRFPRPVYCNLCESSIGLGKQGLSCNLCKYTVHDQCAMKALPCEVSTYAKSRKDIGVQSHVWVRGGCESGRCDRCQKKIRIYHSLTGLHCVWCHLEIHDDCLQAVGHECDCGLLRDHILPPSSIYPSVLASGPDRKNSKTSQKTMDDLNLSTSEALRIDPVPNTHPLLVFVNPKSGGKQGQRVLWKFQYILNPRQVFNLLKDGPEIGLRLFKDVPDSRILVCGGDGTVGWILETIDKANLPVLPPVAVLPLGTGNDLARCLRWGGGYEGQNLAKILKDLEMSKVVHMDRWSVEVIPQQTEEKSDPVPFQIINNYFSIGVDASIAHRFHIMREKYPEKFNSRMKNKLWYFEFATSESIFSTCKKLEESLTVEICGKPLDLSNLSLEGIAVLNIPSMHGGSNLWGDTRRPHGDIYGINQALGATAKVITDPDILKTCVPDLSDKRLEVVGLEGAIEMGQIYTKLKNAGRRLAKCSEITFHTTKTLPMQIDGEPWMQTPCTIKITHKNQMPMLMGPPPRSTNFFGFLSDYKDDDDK
Format: biochemical
Method in brief: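 Recombinant full-length human DGKα (C-terminal FLAG, from insect cells) phosphorylated 1,2-dioleoyl-sn-glycerol presented in octyl-glucopyranoside micelles. ADP formed was quantified by ADP-Glo luminescence. Compounds were added from 100-fold DMSO stocks.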
Molecule `CCn1c(=O)c(C#N)c(N2CCC(c3nc4ccccc4o3)CC2)c2ccccc21` [Example 332, 4-[4-(1,3-benzoxazol-2-yl)piperidin-1-yl]-1-ethyl-2-oxo-1,2-dihydroquinoline-3-carbonitrile] has an IC50 of 17 nM.
Work on `CCn1c(=O)c(C#N)c(N2CCC(c3ccc(Cl)cc3)CC2)c2ccccc21` [Example 333, 4-[4-(4-chlorophenyl)piperidin-1-yl]-1-ethyl-2-oxo-1,2-dihydroquinoline-3-carbonitrile] yielded an IC50 of 172 nM.
`Cn1c(=O)c(C#N)c(N2CCC(c3nc4cc(N5CCCC5=O)ccc4o3)CC2)c2ccccc21` [Example 334, 1-methyl-2-oxo-4-{4-[5-(2-oxopyrrolidin-1-yl)-1,3-benzoxazol-2-yl]piperidin-1-yl}-1,2-dihydroquinoline-3-carbonitrile] showed an IC50 of 100 nM.
`CC(=O)c1ccc(C2(C)CCN(c3c(C#N)c(=O)n(C)c4ccccc34)CC2)cc1` [Example 335, 4-[4-(4-acetylphenyl)-4-methylpiperidin-1-yl]-1-methyl-2-oxo-1,2-dihydroquinoline-3-carbonitrile] gave an IC50 of 2.3 nM.
In the case of `COC1(c2cccc(Cl)c2)CCN(c2c(C#N)c(=O)n(C)c3ccccc23)CC1` [Example 336, 4-[4-(3-chlorophenyl)-4-methoxypiperidin-1-yl]-1-methyl-2-oxo-1,2-dihydroquinoline-3-carbonitrile], the IC50 is reported as 80 nM.
`Cc1ccc2oc(C3CCN(c4c(C#N)c(=O)n(C)c5ccc(P(C)(C)=O)cc45)CC3)nc2c1` [Example 338, 6-(dimethylphosphoryl)-1-methyl-4-[4-(5-methyl-1,3-benzoxazol-2-yl)piperidin-1-yl]-2-oxo-1,2-dihydroquinoline-3-carbonitrile] gave an IC50 of 86 nM.
`Cc1ccc2oc(C3CCN(c4c(C#N)c(=O)n(C)c5ccc(S(C)(=O)=O)cc45)CC3)nc2c1` [Example 339, 6-(methanesulfonyl)-1-methyl-4-[4-(5-methyl-1,3-benzoxazol-2-yl)piperidin-1-yl]-2-oxo-1,2-dihydroquinoline-3-carbonitrile] showed an IC50 of 67 nM.
`Cn1c(=O)c(C#N)c(N2CCC(O)(c3cc4ccccc4s3)CC2)c2ccccc21` [Example 340, 4-[4-(1-benzothiophen-2-yl)-4-hydroxypiperidin-1-yl]-1-methyl-2-oxo-1,2-dihydroquinoline-3-carbonitrile] gave an IC50 of 72 nM.
With `COC1(c2cc3ccccc3s2)CCN(c2c(C#N)c(=O)n(C)c3ccccc23)CC1` [Example 341, 4-[4-(1-benzothiophen-2-yl)-4-methoxypiperidin-1-yl]-1-methyl-2-oxo-1,2-dihydroquinoline-3-carbonitrile] the IC50 was 3.3 nM.
`Cn1c(=O)c(C#N)c(N2CCC(C)(c3cc4ccccc4s3)CC2)c2ccccc21` [Example 342, 4-[4-(1-benzothiophen-2-yl)-4-methylpiperidin-1-yl]-1-methyl-2-oxo-1,2-dihydroquinoline-3-carbonitrile] was tested, and the IC50 was 2.9 nM.
Work on `COc1ccc2cc(C3CCN(c4c(C#N)c(=O)n(C)c5ccccc45)CC3)ccc2c1` [Example 343, 4-[4-(6-methoxynaphthalen-2-yl)piperidin-1-yl]-1-methyl-2-oxo-1,2-dihydroquinoline-3-carbonitrile] yielded an IC50 of 16 nM.
Work on `Cc1cc(C#N)c2cc(C3CCN(c4c(C#N)c(=O)n(C)c5ccccc45)CC3)ccc2n1` [Example 344, 6-[1-(3-cyano-1-methyl-2-oxo-1,2-dihydroquinolin-4-yl)piperidin-4-yl]-2-methylquinoline-4-carbonitrile] yielded an IC50 of 489 nM.
With `Cc1nc2cc(C3CCN(c4c(C#N)c(=O)n(C)c5ccccc45)CC3)ccc2o1` [Example 345, 1-methyl-4-[4-(2-methyl-1,3-benzoxazol-5-yl)piperidin-1-yl]-2-oxo-1,2-dihydroquinoline-3-carbonitrile] the IC50 was 38 nM.
With `Cc1nc2cc(C3CCN(c4c(C#N)c(=O)n(C)c5ccccc45)CC3)ccc2s1` [Example 346, 1-methyl-4-[4-(2-methyl-1,3-benzothiazol-5-yl)piperidin-1-yl]-2-oxo-1,2-dihydroquinoline-3-carbonitrile] the IC50 was 28 nM.
For `Cc1ccccc1-c1noc(C2CCN(c3c(C#N)c(=O)n(C)c4ccccc34)CC2)n1` [Example 348, 1-methyl-4-{4-[3-(2-methylphenyl)-1,2,4-oxadiazol-5-yl]piperidin-1-yl}-2-oxo-1,2-dihydroquinoline-3-carbonitrile], the IC50 was 7.9 nM.
With `COc1ccc(-c2noc(C3CCN(c4c(C#N)c(=O)n(C)c5ccccc45)CC3)n2)cc1` [Example 349, 4-{4-[3-(4-methoxyphenyl)-1,2,4-oxadiazol-5-yl]piperidin-1-yl}-1-methyl-2-oxo-1,2-dihydroquinoline-3-carbonitrile] the IC50 was 15 nM.
Work on `Cc1cccc(-c2noc(C3CCN(c4c(C#N)c(=O)n(C)c5ccccc45)CC3)n2)c1` [Example 350, 1-methyl-4-{4-[3-(3-methylphenyl)-1,2,4-oxadiazol-5-yl]piperidin-1-yl}-2-oxo-1,2-dihydroquinoline-3-carbonitrile] yielded an IC50 of 11 nM.
With `Cc1ccccc1-c1nnc(C2CCN(c3c(C#N)c(=O)n(C)c4ccccc34)CC2)o1` [Example 351, 1-methyl-4-{4-[5-(2-methylphenyl)-1,3,4-oxadiazol-2-yl]piperidin-1-yl}-2-oxo-1,2-dihydroquinoline-3-carbonitrile] the IC50 was 87 nM.
`Cc1ccc(-c2nnc(C3CCN(c4c(C#N)c(=O)n(C)c5ccccc45)CC3)o2)cc1` [Example 352, 1-methyl-4-{4-[5-(4-methylphenyl)-1,3,4-oxadiazol-2-yl]piperidin-1-yl}-2-oxo-1,2-dihydroquinoline-3-carbonitrile] showed an IC50 of 113 nM.
Work on `Cc1cccc(-c2nnc(C3CCN(c4c(C#N)c(=O)n(C)c5ccccc45)CC3)o2)c1` [Example 353, 1-methyl-4-{4-[5-(3-methylphenyl)-1,3,4-oxadiazol-2-yl]piperidin-1-yl}-2-oxo-1,2-dihydroquinoline-3-carbonitrile] yielded an IC50 of 254 nM.
For `Cn1c(=O)c(C#N)c(N2CCC(c3nnc(-c4cccc(Cl)c4)o3)CC2)c2ccccc21` [Example 354, 4-{4-[5-(3-chlorophenyl)-1,3,4-oxadiazol-2-yl]piperidin-1-yl}-1-methyl-2-oxo-1,2-dihydroquinoline-3-carbonitrile], the IC50 was 112 nM.
`Cn1c(=O)c(C#N)c(N2CCC(C)(c3nnc(-c4cccc(Cl)c4)o3)CC2)c2ccccc21` [Example 355, 4-{4-[5-(3-chlorophenyl)-1,3,4-oxadiazol-2-yl]-4-methylpiperidin-1-yl}-1-methyl-2-oxo-1,2-dihydroquinoline-3-carbonitrile] showed an IC50 of 140 nM.
`Cn1c(=O)c(C#N)c(N2CCC(c3ccc4c(c3)C(C)(C)CN4)CC2)c2ccccc21` [Example 356, 4-[4-(3,3-dimethyl-2,3-dihydro-1H-indol-5-yl)piperidin-1-yl]-1-methyl-2-oxo-1,2-dihydroquinoline-3-carbonitrile] showed an IC50 of 5.1 nM.
`CN1C(=O)C(C)(C)c2cc(C3CCN(c4c(C#N)c(=O)n(C)c5ccccc45)CC3)ccc21` [Example 358, 1-methyl-2-oxo-4-[4-(1,3,3-trimethyl-2-oxo-2,3-dihydro-1H-indol-5-yl)piperidin-1-yl]-1,2-dihydroquinoline-3-carbonitrile] gave an IC50 of 44 nM.
Molecule `Cn1c(=O)c(C#N)c(N2CCC(c3ccc4c(c3)CC(O)C4)CC2)c2ccccc21` (stereo not drawn) [Example 359, 4-[4-(2-hydroxy-2,3-dihydro-1H-inden-5-yl)piperidin-1-yl]-1-methyl-2-oxo-1,2-dihydroquinoline-3-carbonitrile] has an IC50 of 3.3 nM.
`Cn1c(=O)c(C#N)c(N2CCC(c3ccc4c(c3)OC(C)(C)O4)CC2)c2ccccc21` [Example 360, 4-[4-(2,2-dimethyl-2H-1,3-benzodioxol-5-yl)piperidin-1-yl]-1-methyl-2-oxo-1,2-dihydroquinoline-3-carbonitrile] gave an IC50 of 1.2 nM.
`Cn1c(=O)c(C#N)c(N2CCC(c3ccc4c(c3)C3(CCC3)C(=O)N4)CC2)c2ccccc21` [Example 361, 1-methyl-2-oxo-4-[4-(2′-oxo-1′,2′-dihydrospiro[cyclobutane-1,3′-indol]-5′-yl)piperidin-1-yl]-1,2-dihydroquinoline-3-carbonitrile] gave an IC50 of 27 nM.
In the case of `Cn1c(=O)oc2cc(C3CCN(c4c(C#N)c(=O)n(C)c5ccccc45)CC3)ccc21` [Example 362, 1-methyl-4-[4-(3-methyl-2-oxo-2,3-dihydro-1,3-benzoxazol-6-yl)piperidin-1-yl]-2-oxo-1,2-dihydroquinoline-3-carbonitrile], the IC50 is reported as 106 nM.
In the case of `Cc1cc(C2(C)CCN(c3c(C#N)c(=O)n(C)c4ccccc34)CC2)nc2ccccc12` [Example 364, 1-methyl-4-[4-methyl-4-(4-methylquinolin-2-yl)piperidin-1-yl]-2-oxo-1,2-dihydroquinoline-3-carbonitrile], the IC50 is reported as 34 nM.
For `Cn1ccc2c(F)cc(C3CCN(c4c(C#N)c(=O)n(C)c5ccccc45)CC3)cc21` [Example 365, 4-[4-(4-fluoro-1-methyl-1H-indol-6-yl)piperidin-1-yl]-1-methyl-2-oxo-1,2-dihydroquinoline-3-carbonitrile], the IC50 was 14 nM.
`Cc1cccc(-n2ccc(C3CCN(c4c(C#N)c(=O)n(C)c5ccccc45)CC3)n2)c1` [Example 366, 1-methyl-4-{4-[1-(3-methylphenyl)-1H-pyrazol-3-yl]piperidin-1-yl}-2-oxo-1,2-dihydroquinoline-3-carbonitrile] gave an IC50 of 12 nM.
In the case of `Cc1ccccc1-n1ccc(C2CCN(c3c(C#N)c(=O)n(C)c4ccccc34)CC2)n1` [Example 367, 1-methyl-4-{4-[1-(2-methylphenyl)-1H-pyrazol-3-yl]piperidin-1-yl}-2-oxo-1,2-dihydroquinoline-3-carbonitrile], the IC50 is reported as 21 nM.
Molecule `Cn1c(=O)c(C#N)c(N2CCC(c3ccn(-c4cccc(Cl)c4)n3)CC2)c2ccccc21` [Example 368, 4-{4-[1-(3-chlorophenyl)-1H-pyrazol-3-yl]piperidin-1-yl}-1-methyl-2-oxo-1,2-dihydroquinoline-3-carbonitrile] has an IC50 of 13 nM.
